Values joined by “and” are separate entries in the source; they are usually repeats but may differ in a detail not shown here. Identical values can stand only once. Like-named read-outs stand apart in the source and are kept apart here.
How the values were obtained:
JR-FL = assay: Infection by single-round luciferase viruses, HIV-1 JR-FL envelope; assay type: cell-based; details: Human immunodeficiency virus 1, 48 h, read-out: JR-FL (μM)
YU-2 = assay: Infection by single-round luciferase viruses, HIV-1 YU-2 envelope; assay type: cell-based; details: Human immunodeficiency virus 1, 48 h, read-out: YU-2 (μM)
Protocol: (§1) Compounds: Compounds are dissolved in dimethyl sulfoxide at a stock concentration of 10 mM, aliquoted, and stored at −20° C. Each compound is then diluted to 1 mM in serum-free Dulbecco's modified Eagle medium (DMEM) and used for different assays.
(§2) Cell Lines: 293T human embryonic kidney and Cf2Th canine thymocytes (ATCC) are grown at 37° C. and 5% CO2 in Dulbecco's modified Eagle's medium (Invitrogen) containing 10% fetal bovine serum (Sigma) and 100 μg/mL penicillin-streptomycin (Mediatech, Inc.). Cf2Th cells stably expressing human CCR5 and CD4 are grown in medium supplemented with 0.4 mg/mL G418 and 0.2 mg/mL hygromycin (Invitrogen).
(§3) Recombinant Luciferase Viruses: 293T human embryonic kidney cells were co-transfected with plasmids expressing the pCMVΔP1Δenv HIV-1 Gag-Pol packaging construct, the R5 YU2 envelope glycoproteins, or the envelope glycoprotein of the control amphotropic murine leukemia virus (A-MLV), and the firefly luciferase-expressing vector at a DNA ratio of 1:1:3 μg using the Effectene transfection reagent (Qiagen). Co-transfection produced single-round, replication-defective viruses. The virus-containing supernatants were harvested 36-40 h after transfection, spun, aliquoted, and frozen at −80° C. until further use. The reverse transcriptase (RT) activities of all viruses were measured as described in Rho, H. M., et al. Virology 1981, 112, 355-360.
(§4) Infection by Single-Round Luciferase Viruses. Cf2Th-CCR5-CD4 target cells were seeded at a density of 6×10^3 cells/well in 96-well luminometer-compatible tissue culture plates (PerkinElmer) 24 h before infection. On the day of infection, CD4-mimetic compounds of interest (0-100 μM) were incubated with recombinant viruses (10,000 RT units) at 37° C. for 30 min. In the case of sensitization assays, a constant concentration of compounds was incubated with virus for 30 min at 37° C.; then, 17b or other antibodies (0-100 μg/mL) were added to the virus/compound mixture and incubated for an additional 30 min at 37° C. The mixtures were then added to the target cells and incubated for 48 h at 37° C.; after this time, the medium was removed from each well, and the cells were lysed by the addition of 30 μL passive lysis buffer (Promega) and three freeze-thaw cycles. An EG&G Berthold Microplate Luminometer LB 96V was used to measure the luciferase activity of each well after the addition of 100 μL of luciferin buffer (15 mM MgSO4, 15 mM KPO4, pH 7.8, 1 mM ATP, and 1 mM dithiothreitol) and 50 μL of 1 mM Firefly D-Luciferin Free Acid 99% (Prolume).

AD8 = assay: Infection by single-round luciferase viruses, HIV-1 AD8 envelope; assay type: cell-based; details: Human immunodeficiency virus 1, 48 h, read-out: AD8 (μM)
A-MLV = assay: Infection by single-round luciferase viruses, control A-MLV envelope; assay type: cell-based, amphotropic murine leukemia virus; details: Murine leukemia virus, 48 h, read-out: A-MLV (μM)
Protocol: as §1, §2, §3, §4

monomeric YU-2 gp120 = target: T1, monomeric YU-2 gp120 (Human immunodeficiency virus type 1 group M subtype B, UniProt P35961); assay: biochemical; assay type: binding, HIV-1; details: ITC, 25° C., PBS pH 7.4, 2% DMSO
T1 construct: containing monomeric YU-2 gp120 at a concentration of 2 μM
Protocol: Isothermal Titration Calorimetry. Thermodynamic parameters for the binding of the different inhibitors to gp120 were obtained by isothermal titration calorimetry (ITC) using a VP-ITC microcalorimeter from MicroCal/GE Healthcare (Northampton, Mass., USA). The titrations were performed at 25° C. by injecting 10 μL aliquots of inhibitor solution into the calorimetric cell (volume ˜1.4 mL) containing monomeric YU-2 gp120 at a concentration of 2 μM. […] In all titration experiments, gp120 and the different inhibitors were equilibrated with PBS, pH 7.4, with 2% DMSO. The heat evolved upon each injection of inhibitor was obtained by integration of the calorimetric signal. The heat associated with inhibitor binding to gp120 was obtained by subtracting the heat of dilution from the heat of reaction.

gp120 = gp120 (Human immunodeficiency virus type 1 group M subtype B, UniProt P35961); details: background statement; cited from earlier work
[1] = Assessment of the maximum tolerated dose (MTD); details: mouse, in vivo, ip; intraperitoneal, CD-1 mice
Protocol: Procedure: (+)-BNM-III-170 was dissolved in DMSO to a final concentration of 10 mg/mL. This solution was then used for intraperitoneal administration to CD-1 mice at various doses to examine for visible signs of intolerance after compound dosing. This included an assessment of hyper- or hypoactivity, altered locomotion, ataxia, sedation, or other visible abnormalities. The compound was ultimately tested at three doses (30 mg/kg, 10 mg/kg and 3 mg/kg), as outlined below, with the amounts injected per mouse and the behavioral observations indicated for each dosing group.

[2] = Evaluation of blood-brain barrier: brain and plasma concentrations; assay type: in vivo; details: 1 hr post IP at 5 mg/kg, female CD1 mice
Protocol: Compound BNM-III-170 was administered to mice under a protocol approved by the University of Pennsylvania Institutional Animal Care and Use Committee. Specifically, BNM-III-170, dissolved in DMSO, was administered IP at 5 mg/kg to 3 month old female CD1 mice. Mice were euthanized 1 hour post dose. Brain and plasma were then collected.
Hemi-brains were homogenized with 10 mM ammonium acetate pH 4.0 (50% w/v) using a sonic dismembrator. Brain homogenate and plasma were extracted with 4 parts (v/v) acetonitrile, vortexed, and centrifuged at 15,000 g for 10 minutes. Supernatants were analyzed by LC-MS/MS using a Waters Acuity UPLC-TQMS. Samples (5 μL) were separated using a BEH C18 column (1.7 μm, 2.1×50 mm) at 0.6 mL/min from 5 to 95% acetonitrile with 0.1% formic acid over 2 minutes. BNM-III-170 was detected in positive ion mode using selected reaction monitoring of a specific collision induced ion transition (447.3>184.1 m/z). Unknown peak areas were quantified against standard curves constructed with BNM-III-170 spiked mouse brain homogenate or plasma extracted as above to final concentrations from 1 to 1000 ng/mL.

| Compound | IC50 (JR-FL) | IC50 (YU-2) | IC50 (AD8) | IC50 (A-MLV) | ΔG (monomeric YU-2 gp120) | ΔH (monomeric YU-2 gp120) | −TΔS (kcal/mol) (monomeric YU-2 gp120) | favorable enthalpy change (gp120) | unfavorable entropy change, −TΔS, to Gibbs energy (gp120) | Kd (monomeric YU-2 gp120) | MTD [1] | B/P ([2]; individual mice 1-3) | Brain ([2]; individual mice 1-3) | Plasma ([2]; individual mice 1-3) | Kp at 1 h ([2]; female, CD1, mouse, brain, ip, 5 mg/kg, AVG of 3 mice, read-out: B/P) | concentration at 1 h ([2]; female, CD1, mouse, brain, ip, 5 mg/kg, AVG of 3 mice, read-out: Brain) | concentration at 1 h ([2]; female, CD1, mouse, plasma, ip, 5 mg/kg, AVG of 3 mice, read-out: Plasma) |
| --- | --- | --- | --- | --- | --- | --- | --- | --- | --- | --- | --- | --- | --- | --- | --- | --- | --- |
| N=C(N)NC[C@H]1Cc2ccccc2[C@@H]1NC(=O)C(=O)Nc1ccc(Cl)c(F)c1 [(+)-DMJ-II-121] | 66.8 ± 9.5 µM | 3.8 ± 1.3 µM | 8.5 ± 2.1 µM | 94.3 ± 5.7 µM | -9.5 kcal/mol | -17.9 kcal/mol | +8.4 kcal/mol |  |  |  |  |  |  |  |  |  |  |
| CC1(C)CC(NC(=O)C(=O)Nc2ccc(Cl)cc2)CC(C)(C)N1 [NBD-556] |  |  |  |  |  |  |  | -24.5 kcal/mol | 17.1 kcal/mol |  |  |  |  |  |  |  |  |
| CN(Cc1ccccc1)Cc1ccc2c(c1)C[C@H](CNC(=N)N)[C@H]2NC(=O)C(=O)Nc1ccc(Cl)c(F)c1 [(+)-BNM-IV-125] | 14 ± 2 µM |  |  | > 100 µM |  |  |  |  |  |  |  |  |  |  |  |  |  |
| CN(Cc1ccc2c(c1)C[C@H](CNC(=N)N)[C@H]2NC(=O)C(=O)Nc1ccc(Cl)c(F)c1)C(=N)N [(+)-BNM-IV-147] | 6.2 ± 0.5 µM | 0.8 ± 0.02 µM | 3.3 ± 0.2 µM | > 100 µM | -9.6 kcal/mol | -15.4 kcal/mol | +5.8 kcal/mol |  |  | 0.095 µM |  |  |  |  |  |  |  |
| CN(Cc1ccc2c(c1)[C@H](NC(=O)C(=O)Nc1ccc(Cl)c(F)c1)[C@@H](CNC(=N)N)C2)C(=N)N [(−)-BNM-IV-197] | 19.5 ± 10.1 µM | 1.2 ± 0.3 µM | 1.3 ± 0.2 µM | 83.7 ± 16.4 µM | -9.6 kcal/mol | -14.2 kcal/mol | +4.6 kcal/mol |  |  | 0.095 µM |  |  |  |  |  |  |  |
| CNCc1ccc2c(c1)C[C@H](CNC(=N)N)[C@H]2NC(=O)C(=O)Nc1ccc(Cl)c(F)c1 [(+)-BNM-III-170] | 14.2 ± 4.5 µM | 1.5 ± 0.8 µM | 6.4 ± 1 µM | > 100 µM | -10.0 kcal/mol | -20.7 kcal/mol | +10.7 kcal/mol |  |  | 0.047 µM | 3 to 9 mg/kg | 0.51 and 0.14 and 0.45 | 268 ng/g and 131 ng/g and 122 ng/g | 522 ng/mL and 910 ng/mL and 270 ng/mL | 0.37 | 174 ng/g | 567 ng/mL |
| CNCc1ccc2c(c1)[C@H](NC(=O)C(=O)Nc1ccc(Cl)c(F)c1)[C@@H](CNC(=N)N)C2 [(+)-JP-III-048] | 37.3 ± 13.8 µM | 2.1 ± 0.9 µM | 6.7 ± 0.6 µM | > 100 µM | -10.4 kcal/mol | -28.2 kcal/mol | +17.8 kcal/mol |  |  | 0.024 µM |  |  |  |  |  |  |  |

Reference: patent publication US9975848B2, “Inhibitors of HIV-1 entry and methods of use thereof” (priority 2014, dated 2018)
